Molecules are shown by their SMILES. pIC50: −log10 of the molar value. Like-named read-outs stand apart in the source and are kept apart here.

Among the targets are DRB1*0301 (Homo sapiens, UniProt P01903+P01911, A100K/A102G/A103R/A169T/F55Y/I96L/K41T/L162R/M171V/P40S/Q125H/Q178H/Q39Y/R42S/S66N/T106N/T262R/W38E/Y61H); DRB1*1501 (Homo sapiens, UniProt P01903+P01911); DRB1*0401 (Homo sapiens, UniProt P01903+P01911, A100K/A169T/F76Y/I96L/K127E/L162R/M171V/N62H/P40V/Q125Y/R42H/S133A/S149N/S66Y/V115G/V209L/W38E); DRB1*0101 (Homo sapiens, UniProt P01903+P01911, A100R/D57E/F55L/F60I/F76Y/I96L/L162R/M171V/P40L/Q125E/R42F/V115G/Y59C); DRB3*0101 (Homo sapiens, UniProt P01903+P79483); DRB1*0404 (Homo sapiens, UniProt P01903+P01911, A100R/A169T/F76Y/I96L/K127E/L162R/M171V/N62H/P40V/Q125Y/R42H/S133A/S149N/S66Y/V209L/W38E); DRB5*0101 (Homo sapiens, UniProt P01903+Q30154); DRB1*0802 (Homo sapiens, UniProt P01903+P01911, A100R/A103L/A169T/F76Y/H45Y/I96F/K41T/L162R/M171V/P40S/Q125H/Q178H/Q39Y/Q99D/R218S/R42G/S66Y/V115G/W38E); DRB1*0701 (Homo sapiens, UniProt P01903+P01911, A100R/A102G/A103Q/D57E/D86V/E43K/F76Y/K127E/L162R/M171V/P40G/Q125H/Q99D/R33Q/R42Y/R54Q/S133A/S66F/T210M/V115G/Y107V/Y59L/Y89S); DRB1*1101 (Homo sapiens, UniProt P01903+P01911, A100R/A169T/A87E/I96F/K41T/L162R/M171V/P40S/Q125H/Q178H/Q39Y/Q99D/R42S/S66Y/T262R/V115G/W38E); DRB1*0405 (Homo sapiens, UniProt P01903+P01911, A100R/A169T/D86S/F76Y/I96L/K127E/L162R/M171V/N62H/P40V/Q125Y/R42H/S133A/S149N/S66Y/V115G/V209L/W38E); DRB4*0101 (Homo sapiens, UniProt P01903+P13762, G164S).

What all share (assay): biochemical
Holding throughout (assay type): binding

In another test the target is DRB1*1302 (Homo sapiens, UniProt P01903+P01911, A100E/A169T/K41T/L162R/M171V/P40S/Q125H/Q178H/Q39Y/Q99D/R42S/S66N/T262R/V115G/W38E/Y61H). The settings on record: for IC50: competitive inhibition of radiolabeled standard peptide, read-out: Binding Affinity (nM) DRB1*1302.
DRB1*1302, sequence (P01903 26-254 limits assumed, other chains not shown): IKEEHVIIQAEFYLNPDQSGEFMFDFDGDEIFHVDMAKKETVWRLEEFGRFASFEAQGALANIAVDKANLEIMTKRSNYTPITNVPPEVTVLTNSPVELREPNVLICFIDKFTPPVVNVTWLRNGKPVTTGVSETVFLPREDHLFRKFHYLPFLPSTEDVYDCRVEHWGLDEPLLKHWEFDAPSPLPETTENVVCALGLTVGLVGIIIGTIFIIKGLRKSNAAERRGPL
A further test concerns the target DRB1*0901 (Homo sapiens, UniProt P01903+P01911, A100R/A103E/D57H/D86V/F55Y/F60I/F76Y/I96F/K127E/L162R/M171V/P40D/Q125H/Q99R/R33Q/R42F/S133A/S66N/T210M/V115G/W38K/Y107V/Y59G/Y89S). Conditions: for IC50: competitive inhibition of radiolabeled standard peptide, read-out: Binding Affinity (nM) DRB1*0901.

DRB1*1101, sequence (P01903 26-254, other chains not shown): as the sequence (P01903 26-254 limits assumed, other chains not shown) above
DRB1*0301, sequence (P01903 26-254, other chains not shown): as the sequence (P01903 26-254 limits assumed, other chains not shown) above

For the compound `CC[C@H](C)[C@H](NC(=O)[C@H](Cc1ccc(O)cc1)NC(=O)CNC(=O)[C@H](CC(C)C)NC(=O)[C@H](CCCCN)NC(=O)[C@H](Cc1c[nH]cn1)NC(=O)[C@H](CC(C)C)NC(=O)CNC(=O)[C@H](CCC(=O)O)NC(=O)CNC(=O)[C@H](CCC(=O)O)NC(=O)[C@@H](NC(=O)CNC(=O)[C@H](CO)NC(=O)[C@H](Cc1ccc(O)cc1)NC(=O)[C@H](CO)NC(=O)[C@@H](N)CC(N)=O)C(C)C)C(=O)O` [NS5 501-517], the pIC50 against DRB1*0301 is 5.35; at DRB1*1501, 5.52; at DRB1*0401 it was 7.13; on DRB1*0101 it was 8.15; against DRB3*0101, 5.53; against DRB1*0404, 5.36. Moreover, the pIC50 was 5.95 against DRB5*0101; 6.08 against DRB1*0802; 7.74 against DRB1*0701; 5.09 against DRB1*1101; 5.62 on DRB1*0405. Further, the IC50 at DRB1*1302 (DRB1*1302) stood at 4990 nM.
As to `CC[C@H](C)[C@H](NC(=O)[C@H](CCC(=O)O)NC(=O)CNC(=O)[C@@H](NC(=O)[C@@H](NC(=O)[C@@H](NC(=O)[C@H](CCC(N)=O)NC(=O)[C@H](Cc1ccccc1)NC(=O)[C@@H](NC(=O)CNC(=O)[C@@H]1CCCN1C(=O)[C@H](CCSC)NC(=O)[C@@H](NC(=O)[C@H](CCC(N)=O)NC(=O)[C@@H](N)Cc1ccccc1)[C@@H](C)O)[C@@H](C)O)[C@@H](C)O)[C@@H](C)O)[C@@H](C)O)C(=O)O` [NS3 109-123], the negative logarithm of the IC50 (pIC50) against DRB1*0301 was 4.78; against DRB1*1501, 5.66; against DRB1*0401, 6.65; on DRB1*0101 it was 6.83; on DRB3*0101, 5.38; on DRB1*0901 it was 5.73. Moreover, the negative logarithm of the IC50 (pIC50) was 6.02 against DRB1*0404; 5.56 against DRB5*0101; 6.25 on DRB1*0802; 5.99 against DRB1*0701; 5.15 against DRB1*1302; 5.41 on DRB1*1101.
Regarding `CC[C@H](C)[C@H](NC(=O)[C@@H]1CCCN1C(=O)[C@H](CC(C)C)NC(=O)CNC(=O)[C@@H](N)CCCCN)C(=O)N[C@@H](CCCNC(=N)N)C(=O)N[C@@H](Cc1ccc(O)cc1)C(=O)N[C@@H](CCC(N)=O)C(=O)N[C@H](C(=O)N[C@H](C(=O)N[C@@H](C)C(=O)N[C@H](C(=O)N[C@@H](CCCCN)C(=O)N[C@@H](CO)C(=O)N[C@@H](CCC(=O)O)C(=O)O)[C@@H](C)O)[C@@H](C)O)[C@@H](C)O` [NS3 237-251], the pIC50 was 5.74 against DRB1*0301; 6.20 against DRB1*1501; 7.89 against DRB1*0401; 6.96 at DRB1*0101; 4.72 at DRB3*0101; 6.51 against DRB1*0404. Also, the pIC50 against DRB5*0101 was 7.89; against DRB1*0802, 7.44; on DRB1*0701 it was 5.52; against DRB1*1101, 6.09; on DRB4*0101 it was 8.26. The IC50 at DRB1*0901 ('-' distinct from ND) came to 928 nM; at DRB1*1302 ('-' distinct from ND), 2620 nM.
With `CSCC[C@H](NC(=O)[C@H](CCC(N)=O)NC(=O)[C@H](C)NC(=O)[C@H](Cc1ccc(O)cc1)NC(=O)[C@H](C)NC(=O)[C@H](CCCCN)NC(=O)CNC(=O)[C@H](CC(C)C)NC(=O)[C@H](CS)NC(=O)[C@H](C)NC(=O)[C@@H](NC(=O)[C@H](CCC(=O)O)NC(=O)[C@H](CCCNC(=N)N)NC(=O)[C@H](CC(C)C)NC(=O)[C@@H](N)CO)[C@@H](C)O)C(=O)N[C@@H](Cc1c[nH]c2ccccc12)C(=O)N[C@H](C(=O)O)[C@@H](C)O` [NS5 747-763], the pIC50 on DRB1*0301 is 5.24; against DRB1*1501, 6.78; against DRB1*0101, 7.27; on DRB3*0101 it was 5.08; against DRB1*0404 it was 6.95; against DRB1*0802, 6.26. The pIC50 is 5.53 on DRB1*0701, 7.10 at DRB1*1101, 7.41 against DRB1*0405 and 5.33 at DRB4*0101. Moreover, on DRB1*0901 (DRB1*0901), the IC50 was 393 nM.
On to `CC[C@H](C)[C@H](NC(=O)[C@H](C)N)C(=O)N[C@@H](CCC(N)=O)C(=O)N[C@@H](CCC(N)=O)C(=O)N[C@H](C(=O)N[C@@H](CCCNC(=N)N)C(=O)N[C@@H](CO)C(=O)N[C@@H](CC(C)C)C(=O)N[C@H](C(=O)NCC(=O)N[C@@H](CC(N)=O)C(=O)N[C@@H](CCC(=O)O)C(=O)N[C@@H](CCC(=O)O)C(=O)N[C@@H](Cc1ccccc1)C(=O)N[C@@H](CC(C)C)C(=O)N[C@@H](CC(=O)O)C(=O)N[C@@H](Cc1ccc(O)cc1)C(=O)O)[C@@H](C)CC)C(C)C` [NS5 866-882], for which the pIC50 is 6.75 against DRB1*0301; 6.83 on DRB1*1501; 7.92 on DRB1*0401; 8.37 on DRB1*0101; 5.09 against DRB3*0101; 7.18 against DRB1*0901. The negative logarithm of the IC50 (pIC50) on DRB1*1302 is 6.27; at DRB1*1101, 6.38; against DRB4*0101, 5.69.
As to `CC[C@H](C)[C@H](NC(=O)[C@H](C)NC(=O)[C@H](C)NC(=O)[C@H](C)NC(=O)[C@@H](N)CCC(=O)O)C(=O)N[C@@H](Cc1ccccc1)C(=O)N[C@@H](CCSC)C(=O)N[C@H](C(=O)N[C@@H](C)C(=O)N[C@H](C(=O)N1CCC[C@H]1C(=O)N1CCC[C@H]1C(=O)NCC(=O)N[C@H](C(=O)N[C@@H](C)C(=O)O)[C@@H](C)O)[C@@H](C)O)[C@@H](C)O` [NS3 309-323], the pIC50 was 6.44 at DRB1*1501; 8.62 against DRB1*0401; 7.57 against DRB1*0101; 4.93 against DRB3*0101; 6.89 against DRB1*0901; 6.46 on DRB1*0404. Besides, the pIC50 at DRB5*0101 is 5.60; against DRB1*0802 it was 7.51; on DRB1*0701, 7.32; at DRB1*1302, 5.58; against DRB1*1101 it was 7.03; against DRB1*0405, 7.49. At DRB4*0101, this compound had a pIC50 of 8.04.
As to `CC[C@H](C)[C@H](NC(=O)[C@H](CCCCN)NC(=O)[C@H](C)NC(=O)[C@H](CCCCN)NC(=O)CNC(=O)[C@H](Cc1c[nH]c2ccccc12)NC(=O)[C@@H](N)[C@@H](C)O)C(=O)N[C@H](C(=O)N[C@H](C(=O)N[C@@H](C)C(=O)N[C@@H](CCC(=O)O)C(=O)N[C@H](C(=O)N[C@@H](CCC(N)=O)C(=O)N[C@@H](CC(N)=O)C(=O)N[C@@H](CO)C(=O)O)[C@@H](C)O)[C@@H](C)O)C(C)C` [NS1 117-131], the negative logarithm of the IC50 (pIC50) is 5.38 at DRB1*0301; 5.43 on DRB1*1501; 7.55 at DRB1*0401; 5.96 against DRB1*0101; 6.27 against DRB3*0101; 6.16 against DRB1*0404. Besides, the pIC50 was 5.41 at DRB5*0101, 5.17 against DRB1*0701, 4.74 on DRB1*1101 and 6.55 at DRB1*0405. Besides, the IC50 on DRB1*0901 ('-' distinct from ND) was determined as 2630 nM; at DRB1*1302 ('-' distinct from ND), 1240 nM.

The pIC50 is the negative decadic logarithm of the IC50, by convention in mol/L.

For the origin of these results see article PMC3794980, “Identification of Conserved and HLA Promiscuous DENV3 T-Cell Epitopes” (PLoS Neglected Tropical Diseases, 2013).
